The record followed here is ChEMBL document CHEMBL5724914, “Linking interpersonal differences in gut microbiota composition and drug biotransformation activity” (2024).

SMILES strings stand for the structures.

For data set [1] the following is noted: human gut metagenome, 24 h, 2 µM.
For data set [2] the following is noted: human gut metagenome, 24 h, 2 µM. The source holds these as a separate data set.
The nature of data set [3]: The drug is tested on Z-022 corresponding to mouse gut metagenome with ENA study accession number: PRJEB37062 and ENA sample accession number: ERS12561821 for biotransformation under anaerobic condition. The drug concentrations were measured over 9 timepoints collected between 0 and 24 hours of incubation by liquid-chromatography-coupled mass spectrometry (LC–MS). As to conditions: 2 µM.

For data set [4] the following is noted: human gut metagenome, 24 h, 2 µM. The source holds these as a separate data set.
A short description of data set [5]: The drug is tested on Z-005 corresponding to metagenome with ENA study accession number: PRJEB37062 and ENA sample accession number: ERS12561805 for biotransformation under anaerobic condition. The drug concentrations were measured over 9 timepoints collected between 0 and 24 hours of incubation by liquid-chromatography-coupled mass spectrometry (LC–MS). As to conditions: 2 µM.

The nature of data set [6]: The drug is tested on WLS-038 corresponding to human gut metagenome with ENA study accession number: PRJEB37062 and ENA sample accession number: ERS12561745 for biotransformation under anaerobic condition. The drug concentrations were measured over 9 timepoints collected between 0 and 24 hours of incubation by liquid-chromatography-coupled mass spectrometry (LC–MS). As to conditions: 2 µM.

For data set [7] the following is noted: human gut metagenome, 24 h, 2 µM. The source holds these as a separate data set.
Data set [8] in a line: The drug is tested on Z-007 corresponding to rat gut metagenome with ENA study accession number: PRJEB37062 and ENA sample accession number: ERS12561807 for biotransformation under anaerobic condition. The drug concentrations were measured over 9 timepoints collected between 0 and 24 hours of incubation by liquid-chromatography-coupled mass spectrometry (LC–MS). As to conditions: 2 µM.

The conditions of data set [9]: human gut metagenome, 24 h, 2 µM. The source holds these as a separate data set.
A short description of data set [10]: The drug is tested on Z-024 corresponding to pig gut metagenome with ENA study accession number: PRJEB37062 and ENA sample accession number: ERS12561823 for biotransformation under anaerobic condition. The drug concentrations were measured over 9 timepoints collected between 0 and 24 hours of incubation by liquid-chromatography-coupled mass spectrometry (LC–MS). The settings on record: 2 µM.

For data set [11] the following is noted: human gut metagenome, 24 h, 2 µM. The source holds these as a separate data set.
A short description of data set [12]: The drug is tested on WLS-007 corresponding to human gut metagenome with ENA study accession number: PRJEB37062 and ENA sample accession number: ERS12561742 for biotransformation under anaerobic condition. The drug concentrations were measured over 9 timepoints collected between 0 and 24 hours of incubation by liquid-chromatography-coupled mass spectrometry (LC–MS). The settings on record: 2 µM.

The nature of data set [13]: The drug is tested on WLS-027 corresponding to human gut metagenome with ENA study accession number: PRJEB37062 and ENA sample accession number: ERS12561744 for biotransformation under anaerobic condition. The drug concentrations were measured over 9 timepoints collected between 0 and 24 hours of incubation by liquid-chromatography-coupled mass spectrometry (LC–MS). As to conditions: 2 µM.

Data set [14] in a line: The drug is tested on Z-025 corresponding to rabbit gut metagenome with ENA study accession number: PRJEB37062 and ENA sample accession number: ERS12561824 for biotransformation under anaerobic condition. The drug concentrations were measured over 9 timepoints collected between 0 and 24 hours of incubation by liquid-chromatography-coupled mass spectrometry (LC–MS). The settings on record: 2 µM.

The conditions of data set [15]: human gut metagenome, 24 h, 2 µM. This is another data set of the same source.
Data set [16] can be described thus: The drug is tested on Z-002 corresponding to rabbit gut metagenome with ENA study accession number: PRJEB37062 and ENA sample accession number: ERS12561802 for biotransformation under anaerobic condition. The drug concentrations were measured over 9 timepoints collected between 0 and 24 hours of incubation by liquid-chromatography-coupled mass spectrometry (LC–MS). As to conditions: 2 µM.

Data set [17] in a line: The drug is tested on Z-013 corresponding to rabbit gut metagenome with ENA study accession number: PRJEB37062 and ENA sample accession number: ERS12561813 for biotransformation under anaerobic condition. The drug concentrations were measured over 9 timepoints collected between 0 and 24 hours of incubation by liquid-chromatography-coupled mass spectrometry (LC–MS). As to conditions: 2 µM.

Data set [18] is described as follows: The drug is tested on Z-028 corresponding to mouse gut metagenome with ENA study accession number: PRJEB37062 and ENA sample accession number: ERS12561827 for biotransformation under anaerobic condition. The drug concentrations were measured over 9 timepoints collected between 0 and 24 hours of incubation by liquid-chromatography-coupled mass spectrometry (LC–MS). The settings on record: 2 µM.

Data set [19] is described as follows: The drug is tested on Z-027 corresponding to metagenome with ENA study accession number: PRJEB37062 and ENA sample accession number: ERS12561826 for biotransformation under anaerobic condition. The drug concentrations were measured over 9 timepoints collected between 0 and 24 hours of incubation by liquid-chromatography-coupled mass spectrometry (LC–MS). The settings on record: 2 µM.

Data set [20] is described as follows: The drug is tested on WLS-052 corresponding to human gut metagenome with ENA study accession number: PRJEB37062 and ENA sample accession number: ERS12561747 for biotransformation under anaerobic condition. The drug concentrations were measured over 9 timepoints collected between 0 and 24 hours of incubation by liquid-chromatography-coupled mass spectrometry (LC–MS). As to conditions: 2 µM.
Also: call rule not given here.

With `CCOC(=O)[C@H](CCc1ccccc1)N[C@@H](C)C(=O)N1[C@H](C(=O)O)C[C@@H]2CCC[C@@H]21`, the “Bacterial Biotransformation” value in data set [1], in data set [2], in data set [3], in data set [4], in data set [5] and in data set [6] was “Compound metabolized” in each case. For the same compound, the “Bacterial Biotransformation” value in data set [7] is on record as “Compound metabolized”; in data set [8], “Compound metabolized”; in data set [9] it was “Compound metabolized”; in data set [10], “Compound metabolized”; in data set [11] it was “Compound NOT metabolized”; in data set [12], “Compound metabolized”. Also, the “Bacterial Biotransformation” value in [13] was “Compound metabolized”; in data set [14] it was “Compound NOT metabolized”; in data set [15], “Compound metabolized”; in data set [16] it was “Compound metabolized”; in [17] it was “Compound NOT metabolized”; in data set [18], “Compound NOT metabolized”. The entries for the “Bacterial Biotransformation” value in [19] and in [20] were “Compound NOT metabolized” and “Compound metabolized”, respectively.

For the compound `CCN(CC)CCNC(C(=O)OCCC(C)C)c1ccccc1.Cl.Cl` (stereo not given), the “Bacterial Biotransformation” value in data set [1] is listed as “Compound metabolized”; in data set [2] it was “Compound metabolized”; in data set [3], “Compound metabolized”; in data set [4], “Compound metabolized”; in data set [5] it was “Compound metabolized”; in [6], “Compound NOT metabolized”. Besides, the “Bacterial Biotransformation” value was “Compound metabolized” in data set [7]; “Compound NOT metabolized” in data set [8]; “Compound metabolized” in data set [9]; “Compound metabolized” in data set [10]; “Compound NOT metabolized” in data set [11]; “Compound metabolized” in data set [12]. The “Bacterial Biotransformation” value in data set [13] is reported as “Compound metabolized”; in [14], “Compound NOT metabolized”; in [15], “Compound metabolized”; in data set [16], “Compound metabolized”; in [17], “Compound NOT metabolized”; in [18] it was “Compound NOT metabolized”. The “Bacterial Biotransformation” value in data set [19] and in data set [20] was “Compound NOT metabolized” in each case.

For the compound `CCCC(=O)Nc1ccc(OCC(O)CNC(C)C)c(C(C)=O)c1` (stereo not given) [ACEBUTOLOL], the “Bacterial Biotransformation” value in [1] was “Compound metabolized”; in data set [2] it was “Compound metabolized”; in data set [3] it was “Compound metabolized”; in data set [4], “Compound metabolized”; in data set [5] it was “Compound NOT metabolized”; in data set [6], “Compound NOT metabolized”. Also, the “Bacterial Biotransformation” value in data set [7] is listed as “Compound metabolized”; in data set [8], “Compound NOT metabolized”; in data set [9], “Compound metabolized”; in data set [10], “Compound NOT metabolized”; in [11], “Compound NOT metabolized”; in [12] it was “Compound NOT metabolized”. For the same compound, the “Bacterial Biotransformation” value in data set [13] is “Compound NOT metabolized”; in data set [14] it was “Compound NOT metabolized”; in [15] it was “Compound metabolized”; in data set [16] it was “Compound metabolized”; in data set [17], “Compound NOT metabolized”; in [18], “Compound NOT metabolized”. For the same compound, the “Bacterial Biotransformation” value in data set [19] and in data set [20] was “Compound NOT metabolized” in each case.

Regarding `C=CCc1ccccc1OCC(O)CNC(C)C` (stereo not given) [ALPRENOLOL], the “Bacterial Biotransformation” value was “Compound NOT metabolized” in [1]; “Compound NOT metabolized” in data set [2]; “Compound metabolized” in [3]; “Compound metabolized” in data set [4]; “Compound NOT metabolized” in data set [5]; “Compound NOT metabolized” in data set [6]. The “Bacterial Biotransformation” value in data set [7] was “Compound metabolized”; in data set [8], “Compound NOT metabolized”; in data set [9] it was “Compound NOT metabolized”; in data set [10], “Compound metabolized”; in data set [11], “Compound NOT metabolized”; in data set [12] it was “Compound NOT metabolized”. The “Bacterial Biotransformation” value was “Compound NOT metabolized” in data set [13]; “Compound metabolized” in data set [14]; “Compound NOT metabolized” in [15]; “Compound metabolized” in [16]; “Compound NOT metabolized” in data set [17]; “Compound NOT metabolized” in data set [18]. In addition, the entries for the “Bacterial Biotransformation” value in data set [19] and in [20] were “Compound metabolized” and “Compound NOT metabolized”, respectively.

On to `CC(C)c1c(C(=O)Nc2ccccc2)c(-c2ccccc2)c(-c2ccc(F)cc2)n1CC[C@@H](O)C[C@@H](O)CC(=O)O` [ATORVASTATIN], for which the “Bacterial Biotransformation” value in [1] is given as “Compound metabolized”; in data set [2] it was “Compound NOT metabolized”; in data set [3], “Compound NOT metabolized”; in data set [4], “Compound NOT metabolized”; in data set [5] it was “Compound metabolized”; in data set [6] it was “Compound metabolized”. The “Bacterial Biotransformation” value in [7] is recorded as “Compound NOT metabolized”; in [8], “Compound NOT metabolized”; in data set [9], “Compound NOT metabolized”; in data set [10] it was “Compound NOT metabolized”; in data set [11] it was “Compound NOT metabolized”; in data set [12], “Compound metabolized”. Also, the “Bacterial Biotransformation” value is given as “Compound metabolized” in data set [13]; “Compound NOT metabolized” in data set [14]; “Compound NOT metabolized” in data set [15]; “Compound metabolized” in [16]; “Compound NOT metabolized” in data set [17]; “Compound NOT metabolized” in data set [18]. Besides, the “Bacterial Biotransformation” value was “Compound NOT metabolized” in data set [19] and “Compound metabolized” in data set [20].
